The values that follow come from US20160375155A1, “Collagen Imaging Compositions” (Collagen Medical, LLC, priority 2015, published 2016).

Like-named read-outs stand apart in the source and are kept apart here.

Data set [1] can be described thus: Relaxivity in PBS (Bruker mq60, 60 MHz). In kind it is physicochemical. The note with it: pH 7.4 PBS at 1.4 T, 37° C. The method, then: The relaxivity of Compound ID Nos. 1, 2 and 4 were determined in PBS at 37° C. using a Bruker mq60 spectrometer operating at 60 MHz (1.4 tesla). Samples were equilibrated at concentrations ranging from 0-200 μM for at least 30 minutes at 37° C. T1 was measured using an inversion recovery sequence. Relaxivities were calculated by subtracting the relaxation rate of the buffer […] and then dividing the result by the concentration of Compound.

The nature of data set [2]: Pharmacokinetics (rat), plasma gadolinium by ICP-MS. Type of data set: in vivo, Sprague Dawley rats. As to conditions: 1.3 umol/kg iv bolus in 80 mM sucrose, pH 7, 2-90 minutes. On the procedure: Compound ID No. 1 was formulated at pH 7 in 80 mM sucrose and administered to Sprague Dawley rats (n=2) at dose of 1.3 umol/kg using a bolus IV injection. Plasma was sampled at 2, 5, 15, 30, and 90 minutes post-injection and analyzed for gadolinium content using ICP-MS (FIG. 15).

In data set [3] the test system is acute and chronic myocardial infarct (fibrosis). In kind it is in vivo, canine. As to conditions: for CNR between infarct and blood: Compound ID No. 1 0.0075 mmol/kg, extracellular gadolinium 0.2 mmol/kg. From the text:
An experimental protocol was developed to test the ability of Compound ID No. 1 to differentiate acute from chronic myocardial infarction in an in-vivo large animal (canine) model. In this model, early following acute myocardial infarction, pathologic fibrosis has not fully developed within the infarct zone (fibrosis-poor), whereas in chronic MI (˜8 weeks following MI), dense fibrosis fully replaced necrotic myocardium (fibrosis-rich).
In the myocardial fibrosis canine model, a vascular occluder was placed surgically around the left anterior descending coronary artery (LAD) to allow occlusion and reperfusion. Two animals were studied following acute MI and two additional animals were studied both following acute MI, and chronically at 8 weeks. The LAD vessel was completely occluded for 70-90 minutes and then released to allow reperfusion. The chest was sutured closed, and the animal was allowed to recover. Imaging was performed on a 3 T clinical scanner in an acute (<1 week, minimal fibrosis expected in acute necrosis) and chronic (8 weeks, healing complete, necrotic myocardium replaced by dense collagenous scar) time point after infarction. For each time point, the animals undergo 2 scans separated by 48 hours with conventional gadolinium contrast (0.2 mmol/kg GdDTPA) and Compound ID No. 1 (0.0075 mmol/kg).
Imaging was performed on a 3 T clinical scanner (Siemens Verio). Breath holding was achieved by temporarily turning off the animal ventilator, and all images were ECG gated. Standard short and long axis cine imaging was performed throughout the left ventricle to identify left ventricular function and regional wall motion abnormalities. Delayed enhancement imaging (segmented 2D inversion recovery gradient echo) was performed prior to and serially following Compound ID No. 1 administration. Two strategies were employed: (1) a fixed inversion time was chosen to null pre-contrast myocardium (TI˜650 ms), and (2) a variable inversion time set to null post-contrast myocardium as is performed in traditional delayed enhancement imaging.
After imaging, animals were euthanized and post mortem analysis of myocardium was performed. Tissue was assessed grossly by histopathologic staining with triphenyltetrazolium chloride for myocardial infarction, and microscopically with Masson's trichrome staining for fibrosis. Additionally quantitative tissue analysis for hydroxyproline was used to measure total collagen content in tissue and compared to tissue gadolinium concentration by inductively coupled plasma-mass spectrometry. MR data was analyzed quantitatively for conspicuity of infarction and image quality as well as contrast to noise ratio (CNR) for infarct-normal myocardium and infarct-blood.

A further data set concerns fibrotic liver tissue. The data set can be described thus: Uptake into fibrotic liver tissue, bile duct ligated (BDL) rats. In kind it is in vivo, Sprague-Dawley rats. The note with it: BDL rats vs sham, ~7.5 μmol/kg, 90 min. The method, then: Bile duct ligated (BDL) rats are selected to assess the uptake of the complexes in fibrotic liver tissue as compared to sham operated animals. In this model, the common bile duct is surgically tied off and the resultant cholestosis results in fibrosis around the bile ducts. Laparotomy is performed in Sprague-Dawley rats with double ligation of the common bile duct with a section between the two ligatures (2-3% isoflurane anesthesia). […] Fibrosis is evident 15 days after ligation and increases with time up to 30 days after ligation, providing defined endpoints for imaging of moderate and severe fibrosis. Studies are conducted by injecting Compound ID. No. 1 at a dose ˜7.5 μmol/kg. After 90 min, the animals are sacrificed and the 4 liver lobes and abdominal muscle are removed and the gadolinium concentration quantified by ICP-MS and collagen content quantified using hydroxyproline concentration.

The test system of the next data set is myocardial collagen. The note with it: rat MI model, healthy and infarcted heart.

Method for myocardial collagen: Myocardial infarction was induced in Sprague Dawley rats by occlusion of the left anterior descending coronary artery followed by reperfusion. The rats were anesthetized with an intraperitoneal (i.p.) injection of 100 μg pentobarbital sodium per gram body weight and a thorocotamy was performed. The pericardium was removed and the left anterior artery was sutured with a 7.0 silk suture for 60 minutes after which reperfusion was established.
Animals were sacrificed at 60 minutes post-injection and the heart removed and sectioned for analysis.
The slope for this correlation is a measure of efficacy.

For `CC(C)C[C@H](NC(=O)[C@@H]1CSSC[C@H](NC(=O)[C@H](Cc2c[nH]cn2)NC(=O)[C@H](Cc2c[nH]c3ccccc23)NC(=O)[C@H](CCCCNC(=O)CC[C@H](C(=O)O)N2CCN(CC(=O)O)CCN(CC(=O)O)CCN(CC(=O)O)CC2)NC(=O)CNC(=O)CC[C@H](C(=O)O)N2CCN(CC(=O)O)CCN(CC(=O)O)CCN(CC(=O)O)CC2)C(=O)N[C@@H]([C@@H](C)O)C(=O)N[C@@H]([C@@H](C)O)C(=O)N[C@@H](CCCCNC(=O)CC[C@H](C(=O)O)N2CCN(CC(=O)O)CCN(CC(=O)O)CCN(CC(=O)O)CC2)C(=O)N[C@@H](Cc2ccccc2)C(=O)N2CCC[C@H]2C(=O)N[C@@H](Cc2c[nH]cn2)C(=O)N[C@@H](Cc2c[nH]cn2)C(=O)N[C@@H](Cc2ccc(O)cc2)C(=O)N1)C(=O)N[C@@H](Cc1ccc(O)cc1)C(=O)N[C@@H](Cc1ccc(-c2ccccc2)cc1)C(N)=O` [Compound ID No. 1], the “R1 (relaxivity)” value in data set [1] amounted to 43.4 mM⁻¹ s⁻¹. In addition, the “pharmacokinetic profile (plasma gadolinium)” value in data set [2] is “rapid initial blood clearance”. Besides, the “CNR between infarct and blood” value in data set [3] (acute MI) is 19±7.4; in data set [3] (chronic MI (8 weeks)), 11±2. In addition, the “T1 of infarct vs normal myocardium” value in data set [3] (acute myocardial infarction, FIG. 24a) is “longer than normal (N1) myocardium”; in data set [3] (chronic myocardial infarction, FIG. 24b) it was “lower T1 than normal myocardium throughout the entire experiment”; in data set [3] (chronic myocardial infarction, FIG. 24b, listed as Compound ID. No. 1), “early and persistent lowering of T1 values”. The “MR image enhancement of infarct over time” value in data set [3] (acute myocardial infarction, FIG. 25a) was “lack of contrast early, equilibration with normal myocardium at 30 minutes, and enhancement >1 hr”. Also, the “relationship of compound concentration (gadolinium) vs. collagen concentration (hydroxyproline)” value in data set [3] (canine heart tissue, FIG. 26) is given as “linear relationship”. The “extent of the enhanced area” value in data set [3] (chronic infarct, compared with Gd delayed enhancement) is reported as “matched that of Gd delayed enhancement”. The “uptake into fibrotic liver tissue” value in the data set on fibrotic liver tissue is listed as “consistent with uptake of Compound ID No. 1 into fibrotic-rich liver tissue”. Further, the “calculated slope, hydroxyproline vs. gadolinium concentration” value in the data set with myocardial collagen is recorded as 8498.
